Source: patent US8703183B2 (priority 2008, dated 2014)

Legend:
[1] = system: Sprague Dawley rats; format: in vivo; conditions: for Mortality in males: single oral dose (metformin salts 1500 mg/kg, Glycine 871.6 mg/kg), male Sprague Dawley rats; for Glucose reducing effect: single oral dose, Glycine 871.6 mg/Kg, metformin glycinate 1500 mg/kg; for Time of lowest level of glucose in blood after administration: both sexes; for Time of lowest level of glucose in blood after administration / Blood glucose level compared to females from the control group: single oral administration; for Mortality in females: single oral dose 1500 mg/kg, female Sprague Dawley rats
Description: . The following 14 days to administration, toxic effects were evaluated. […]; The cause to deaths was to a pronounced and fast drop in glycemia levels.

[2] = system: Kidney origin cells: CRL 1633; conditions: 250 mg/ml to 0.12 mg/ml, 24 and 72 hours exposure
[3] = system: Hepatic origin cells: CCL13; conditions: 250 mg/ml to 0.12 mg/ml, 24 and 72 hours exposure
[4] = system: Wistar rats; conditions: both, rat, in vivo, 28 days
Description: (§1) Number of animals: 50 Wistar rats, young adults 3 months of age, of both sexes, were used. Five batches with ten animals each. Four experimental groups (10 animals in each group) and a control group.
(§2) After fasting, different doses (low, medium, high, and satellite and control groups) of the product were orally administered using an orogastric tube.
(§3) • Low: 0.1 g/kg • Medium: 0.5 g/kg • High: 1.0 g/kg • Satellite 1.0 g/kg • Control: Only the carrier (Bidistilled water)

[5] = system: Wistar rats; assay: Subacute toxicity study at 28 days (OECD Guideline 407); conditions: 0.1, 0.5, 1.0 g/kg oral
Description: as §1, §2, §3

[6] = system: Primary cultures: hepatocytes; conditions: 250 mg/ml to 0.12 mg/ml, 24 and 72 hours exposure

Row | Compound | Mortality in males [1] | Glucose reducing effect [1] | Cytotoxicity [2] | Cytotoxicity [3] | Time of lowest level of glucose in blood after administration [1] | Lactate level in plasma ([1]; day of oral administration, 1500 mg/kg) | Blood glucose level compared to females from the control group [1] | Mortality in females [1] | Reversal of semi-pasty faeces during the course of the study [4] | Probable dose for the non-observable adverse effect (extrapolation) ([4]; po) | Mortality during the 28-day study [5] | Cytotoxicity [6]
1 | NCC(=O)O [Glycine, reference compound] | did not show mortality | did not show a marked glucose reducing affect |  |  |  |  |  |  |  |  |  | 
2 | CN(C)C(=N)NC(=N)N [Metformin glycinate, N,N-dimethylimidodicarbonimidic diamide glycinate] | did not show mortality | more pronounced reduction of glucose levels | not cytotoxic | not cytotoxic | three | increase of lactate level in plasma | statistically significant lower blood glucose level 15 min, 30 min and also 3 and 6 hours after | 30% | 9th-11th | 500 to 1000 mg/kg | No mortality | not cytotoxic
3 | CN(C)C(=N)NC(=N)N.Cl [Metformin hydrochloride, reference compound] | did not show mortality |  |  |  | three |  | statistically lower blood glucose level 3 and 6 hours after | 10% |  |  |  | 
